According to DBAASP:
In brackets after ≈: the same amount, converted by molar mass. Values belong to the compound of their own block, whether it stands above or below them.

Legend:
Experiment in all cases: ≥ marks a high value that may be exact or a test limit, other limits are often not marked, values filed in µg/mL are converted to µM
[1] = test system: Enterococcus faecium NTCC 12697
[2] = test system: Candida albicans ATCC 10231
[3] = test system: Klebsiella pneumoniae ATCC 43816
[4] = test system: Staphylococcus aureus ATCC 6538
[5] = test system: Pseudomonas aeruginosa ATCC 9027
[6] = test system: Escherichia coli ATCC BAA-2340
[7] = test system: Candida albicans ATCC 2002
[8] = test system: Escherichia coli ATCC 8739
[9] = test system: Staphylococcus aureus ATCC 25923
[10] = test system: Escherichia coli NCTC 13846
[11] = test system: Acinetobacter baumannii ATCC BAA-747
[12] = test system: Escherichia coli ATCC 25922
[13] = test system: Staphylococcus aureus NCTC 12493
[14] = test system: Pseudomonas aeruginosa CMCCB 10104
[15] = test system: Escherichia coli ATCC 25726
[16] = test system: Batrachochytrium dendrobatidis JEL-197
[17] = test system: Acinetobacter baumannii I NM8
[18] = test system: Pseudomonas aeruginosa 9132
Escherichia coli 780 = test system: Escherichia coli 780
Escherichia coli 850 = test system: Escherichia coli 850
[19] = test system: Pseudomonas aeruginosa 2760
[20] = test system: Acinetobacter baumannii 2982
[21] = test system: Acinetobacter baumannii 4956
[22] = test system: Acinetobacter baumannii ATCC 19606
[23] = test system: Pseudomonas aeruginosa ATCC 27853
[24] = test system: Staphylococcus aureus 725
[25] = test system: Acinetobacter baumannii 1980
[26] = test system: Staphylococcus aureus 936
[27] = test system: Klebsiella pneumoniae ATCC 700603
[28] = test system: Candida albicans ATCC 20032
[29] = test system: Bacillus subtilis ATCC 6633
[30] = test system: Fusobacterium nucleatum NCTC 10562
[31] = test system: Pseudomonas aeruginosa PAO239
[32] = test system: Candida albicans NCTC 3179
[33] = test system: Streptococcus mutans ATCC 10449
[34] = test system: Enterococcus faecalis NCTC 12697
[35] = test system: Candida albicans ATCC 90028
[36] = test system: Salmonella enterica subsp. enterica serovar Typhi
Staphylococcus aureus = test system: Staphylococcus aureus
Enterobacter cloacae = test system: Enterobacter cloacae
Escherichia coli = test system: Escherichia coli
Bacillus subtilis = test system: Bacillus subtilis
Pseudomonas aeruginosa = test system: Pseudomonas aeruginosa

Compound: CC[C@H](C)[C@H](NC(=O)CN)C(=O)NCC(=O)N[C@H](C(=O)N[C@@H](CCCCN)C(=O)N[C@H](C(=O)N[C@@H](CC(C)C)C(=O)NCC(=O)NCC(=O)N[C@H](C(=O)N[C@@H](CCCCN)C(=O)N[C@@H](C)C(=O)N[C@@H](C)C(=O)N[C@@H](CC(C)C)C(=O)N[C@@H](CCCCN)C(=O)NCC(=O)N[C@@H](C)C(=O)N[C@@H](CC(C)C)C(=O)N[C@@H](CCCCN)C(=O)N[C@@H](CCC(=O)O)C(=O)N[C@@H](CC(C)C)C(=O)N[C@@H](C)C(=O)N[C@@H](CO)C(=O)N[C@H](C(=O)N[C@@H](Cc1ccc(O)cc1)C(=O)N[C@H](C(=O)N[C@@H](CC(N)=O)C(N)=O)C(C)C)[C@@H](C)O)C(C)C)[C@@H](C)CC)[C@@H](C)O [GIGTKILGGVKAALKGALKELASTYVN]
MIC [28]: ≥ 37.4 µM
MIC [9]: 3.52 µM (≈ 9.4 µg/mL)
MIC [29]: 28.1 µM (≈ 75 µg/mL)
MIC [12]: 7.03 µM (≈ 18.8 µg/mL)

Compound: CC[C@H](C)[C@H](NC(=O)CNC(=O)CNC(=O)[C@@H](NC(=O)[C@H](Cc1ccccc1)NC(=O)[C@H](C)NC(=O)[C@H](CCCCN)NC(=O)CNC(=O)[C@H](Cc1ccccc1)NC(=O)[C@H](CCCCN)NC(=O)CNC(=O)[C@H](CC(C)C)NC(=O)[C@H](CO)NC(=O)[C@H](Cc1cnc[nH]1)NC(=O)[C@H](C)NC(=O)[C@H](Cc1ccccc1)NC(=O)[C@H](CCC(=O)O)NC(=O)[C@H](CCCCN)NC(=O)[C@@H](NC(=O)CN)[C@@H](C)CC)C(C)C)C(=O)N[C@@H](CC(C)C)C(=O)N[C@@H](CC(N)=O)C(=O)N[C@@H](CCC(N)=O)C(=O)O [GIKEFAHSLGKFGKAFVGGILNQ]
MIC [30]: 12.5 µM (≈ 30.2 µg/mL)
MIC [15]: ≥ 50 µM
MIC [31]: ≥ 100 µM
MIC [9]: > 200 µM
MIC [23]: > 100 µM
MIC [32]: ≥ 100 µM
MIC [33]: ≥ 50 µM
MIC [12]: > 200 µM
MIC [34]: ≥ 100 µM

Compound: CC(C)C[C@H](NC(=O)[C@H](CCCCN)NC(=O)[C@H](CCCN=C(N)N)NC(=O)[C@H](Cc1ccccc1)NC(=O)[C@H](Cc1ccccc1)NC(=O)[C@H](CCCCN)NC(=O)[C@H](CCCCN)NC(=O)[C@H](Cc1ccccc1)NC(=O)[C@H](CCCN=C(N)N)NC(=O)[C@H](CCCCN)NC(=O)[C@@H](NC(=O)[C@@H](N)CC(C)C)C(C)C)C(=O)N[C@@H](CCCCN)C(=O)N[C@@H](CCCCN)C(=O)N[C@@H](CO)C(=O)N[C@H](C(N)=O)C(C)C [LVKRFKKFFRKLKKSV]
MIC [35]: ≥ 62.4 µM
MIC [36]: 1.95 µM (≈ 4 µg/mL)
MIC [9]: 1.95 µM (≈ 4 µg/mL)
MIC (Staphylococcus aureus): 31.2 µM (≈ 64 µg/mL)
MIC (Enterobacter cloacae): 15.6 µM (≈ 32 µg/mL)
MIC [23]: 31.2 µM (≈ 64 µg/mL)
MIC (Escherichia coli): 15.6 µM (≈ 32 µg/mL)
MIC (Bacillus subtilis): 31.2 µM (≈ 64 µg/mL)
MIC (Pseudomonas aeruginosa): 7.79 µM (≈ 16 µg/mL)
MIC [12]: 7.79 µM (≈ 16 µg/mL)

More lines, now with the values ahead:

MIC [1]: ≥ 512 µM
MIC [2]: > 512 µM
MIC [3]: ≥ 64 µM
MIC [4]: > 512 µM
MIC [5]: 64 µM (≈ 125 µg/mL)
MIC [6]: ≥ 32 µM
MIC [7]: 10.4 µM (≈ 20.2 µg/mL)
MIC [8]: ≥ 32 µM
MIC [9]: 5.18 µM (≈ 10.1 µg/mL)
MIC [10]: ≥ 32 µM
MIC [11]: ≥ 512 µM
MIC [12]: 10.4 µM (≈ 20.2 µg/mL)
MIC [13]: ≥ 256 µM
MIC [14]: 20.7 µM (≈ 40.4 µg/mL)
Compound: CC[C@H](C)[C@H](NC(=O)[C@H](CC(N)=O)NC(=O)[C@@H](NC(=O)[C@H](C)N)C(C)C)C(=O)N1CCC[C@H]1C(=O)N[C@@H](Cc1ccccc1)C(=O)N[C@@H](CCCCN)C(=O)N[C@H](C(=O)N[C@@H](Cc1cnc[nH]1)C(=O)N[C@@H](Cc1ccccc1)C(=O)N[C@@H](CCCN=C(N)N)C(=O)N[C@H]1CSSC[C@@H](C(=O)O)NC(=O)[C@H](Cc2ccccc2)NC(=O)[C@H](C)NC(=O)[C@H](C)NC(=O)[C@H](CCCCN)NC1=O)C(C)C [AVNIPFKVHFRCKAAFC]

MIC [15]: ≥ 160 µM
MIC [9]: 40 µM (≈ 51.4 µg/mL)
MIC [16]: ≥ 100 µM
Compound: CSCC[C@H](NC(=O)[C@H](C)NC(=O)[C@H](CC(C)C)NC(=O)[C@@H]1CCCN1C(=O)[C@H](CC(C)C)NC(=O)[C@@H](N)Cc1ccccc1)C(=O)N[C@@H](C)C(=O)N[C@@H](CC(C)C)C(=O)NCC(=O)N[C@@H](CCCCN)C(=O)N[C@@H](CC(C)C)C(=O)N[C@@H](CC(C)C)C(N)=O [FLPLAMALGKLL]

MIC [17]: 3 µM (≈ 5.06 µg/mL)
MIC [18]: ≥ 38 µM
MIC (Escherichia coli 780): 4.74 µM (≈ 8 µg/mL)
MIC (Escherichia coli 850): 9.49 µM (≈ 16 µg/mL)
MIC [19]: ≥ 75.9 µM
MIC [15]: 6 µM (≈ 10.1 µg/mL)
MIC [20]: 2.37 µM (≈ 4 µg/mL)
MIC [21]: 9.49 µM (≈ 16 µg/mL)
MIC [22]: 4.74 µM (≈ 8 µg/mL)
MIC [23]: 25 µM (≈ 42.1 µg/mL)
MIC [24]: 4.74 µM (≈ 8 µg/mL)
MIC [25]: 9.49 µM (≈ 16 µg/mL)
MIC [26]: 19 µM (≈ 32 µg/mL)
MIC [12]: 4.74 µM (≈ 8 µg/mL)
MIC [27]: 25 µM (≈ 42.1 µg/mL)
Compound: CC(C)C[C@H](NC(=O)[C@@H](NC(=O)[C@H](CC(N)=O)NC(=O)[C@H](C)NC(=O)CNC(=O)[C@H](CC(C)C)NC(=O)[C@H](CCCN=C(N)N)NC(=O)[C@H](CC(C)C)NC(=O)[C@H](C)NC(=O)[C@H](CCCCN)NC(=O)CNC(=O)[C@H](CC(C)C)NC(=O)[C@H](CC(C)C)NC(=O)[C@H](CO)NC(=O)CNC(=O)[C@H](Cc1ccccc1)NC(=O)CN)C(C)C)C(N)=O [GFGSLLGKALRLGANVL]
